Test results published in patent US20230278987A1, “Antimicrobial Compounds and Methods” (Curza Global, LLC, priority 2019, published 2023).
Counter-ions that a name gives are not always drawn. Like-named read-outs stand apart in the source and are kept apart here.

Experiments:
A.baumannii (Ab) = experiment: Broth microdilution MIC against A.baumannii (Ab); assay type: cell-based; conditions: for MIC: Acinetobacter baumannii
Protocol: (§1) A certified BSL-2 laboratory was used for testing. Compounds were evaluated using the broth microdilution minimum inhibitory concentration (MIC) and minimum bactericidal concentration (MBC) assays defined by Clinical and Laboratory Standards Institute (CLSI) in the M26-A guideline against S.aureus (Sa), E.coli (Ec), K.pneumoniae (Kp), A.baumannii (Ab), E.faecalis (Ef) and P.aeruginosa (Pa).
(§2) MICs were determined using the Clinical Laboratory and Standards Institute (CLSI) Broth Microdilution Method with slight modification. Clinical and Laboratory Standards Institute (2012). “Methods for dilution antimicrobial susceptibility tests for bacteria that grow aerobically; approved standard, 9th ed. M07-A9. Clinical and Laboratory Standards Institute, Wayne, PA.” Serial two-fold dilutions of compounds are prepared in sterile clear roundbottom 96-well plates.
(§3) To prepare microdilution trays, two-fold dilutions of antimicrobial agent are prepared in growth medium: Cation-Adjusted Mueller-Hinton Broth (CAMHB), or CAMHB supplemented with sodium bicarbonate (6.25 or 25 mM final concentration prepared from a 1.0 M stock solution) or CAMHB supplemented with heat inactivated human serum (Fisher Cat. # BP2657100) 0-50% by adding 200 µL of the highest concentration to be tested (64 µg/mL, for example) in row A, mixing and transferring 100 µL from row A to 100 µL growth medium in row B, then repeating the mixing and transferring through row H of the 96-well plate, discarding the excess 100 µL remaining. This slight modification to the CLSI protocol enables evaluation of MICs for 3 compounds per plate in triplicate, albeit with only 8 compound dilutions (CLSI protocol enables 2 compounds in triplicate with 10 dilutions). Bacterial suspensions are added to a final concentration of 5 × 10^4 CFU/well by adding 5 µL of a 1:10 dilution of a 0.5 McFarland suspension (1 × 10^8 CFU/mL) for each bacterium evaluated. Bacterial suspensions were prepared using the growth method described by CLSI. Well-isolated colonies (3-5 from an agar plate) were selected using a sterile loop and used to inoculate a tube containing 4 mL of CAMHB. The cultures are incubated at 35 ± 2° C. until it achieves or exceeds the turbidity of the 0.5 McFarland standard, determined by measuring A600nm (usually two to six hours). When growth exceeds a 0.5 McFarland standard, the turbidity is adjusted with broth to be equivalent to a 0.5 McFarland standard.

[1] = target: Rabbit Reticulocyte Lysate (eukaryotic protein synthesis); experiment: Rabbit Reticulocyte Lysate: inhibition of eukaryotic protein synthesis (luciferase); assay type: biochemical; conditions: 30° C. for 90 minutes, read-out: retic. IC50
Protocol: Inhibition of eukaryotic protein synthesis was determined using the Rabbit Reticulocyte Lysate System, Nuclease-Treated from Promega (catalog #L-4960) with slight modifications to the manufacturer’s protocol. Compounds were serial diluted in 0.5 mL microcentrifuge tubes by mixing and transferring 50 µL from the highest concentration to 50 µL of water, mixing and transferring 50 µL of this 2-fold dilution to 50 µL of water. This mixing and transferring was repeated so that there are a total of 8 tubes with serial dilutions of compound at 10× the desired screening concentration that are ultimately diluted to 1× by the addition of rabbit reticulocyte luciferase synthesis mixture. Serial dilutions of compounds were added (2.5 µL) to wells in a black round bottom 96-well plate. Water (2.5 µL) was used as a “no inhibitor” control in 4 wells/plate. No RNA control reaction mixture (2 µL; see below) was used as a control in 4 wells/plate for background luminescence. Rabbit reticulocyte luciferase synthesis mixture (22.5 µL; see below) was added to wells with compounds or water mixture and incubated at 30° C. for 90 minutes. Luciferase assay reagent (25 µL) was added with luminescence measured using a BioTek Synergy HTX plate reader. % Inhibition was determined relative to no inhibitor controls.
Rabbit reticulocyte luciferase synthesis mixture: • 1,000 µL rabbit reticulocyte lysate • 5.7 µL Luciferase Control RNA (1 µg/ µL) • 26 µL complete amino acid mixture • 395 µL water
No RNA Control • 70 µL rabbit reticulocyte lysate • 2 µL complete amino acid mixture • 28 µL water

[2] = test system: E.coli S30 extract (bacterial protein synthesis); experiment: E.coli S30 extract: inhibition of bacterial protein synthesis (luciferase); assay type: biochemical; conditions: 37° C. for 1 hour
Protocol: E.coli S30 extract: Inhibition of bacterial protein synthesis was determined using the E.coli S30 Extract System for Circular DNA (Promega catalog #L-2010) and Luciferase Assay Reagent (Promega catalog #E1500) with slight modifications to a published protocol. Fyfe, C., Sutcliffe, J.A. and Grossman, T.H. (2012) “Development and characterization of a Pseudomonas aeruginosa in vitro coupled transcription-translation assay system for evaluation of translation inhibitors” J. Microbiol. Methods 90(3), 256-261.
Compounds were serial diluted in 0.5 mL microcentrifuge tubes by mixing and transferring 50 µL from the highest concentration to 50 µL of water, mixing and transferring 50 µL of this 2-fold dilution to 50 µL of water. This mixing and transferring was repeated so that there are a total of 8 tubes with serial dilutions of compound at 10× the desired screening concentration that are ultimately diluted to 1× by the addition of S30 luciferase synthesis mixture. Serial dilutions of compounds were added (2 µL) to wells in a black round bottom 96-well plate. Water (2 µL) was used as a “no inhibitor” control in 4 wells/plate. No DNA control reaction mixture (20 µL; see below) was used as a control in 4 wells/plate for background luminescence. S30 luciferase synthesis mixture (18 µL; see below) was added to wells with compounds or water mixture and incubated at 37° C. for 1 hour. Reactions were stopped by transferring to 4° C. refrigerator for 5 minutes then 25 µL of luciferase activity mix was added. Luminescence was measured using a BioTek Synergy HTX plate reader. % Inhibition was determined relative to no inhibitor controls.
S30 luciferase synthesis mixture: • 445 µL S30 extract, circular • 712 µL S30 Premix without amino acids • 4.45 µL pBESTluc™ DNA (1 µg/ µL) • 78 µL complete amino acid mixture • 267 µL water
No DNA control: • 20 µL S30 extract, circular • 32 µL S30 Premix without amino acids • 7 µL complete amino acid mixture • 21 µL water

E.faecalis (Ef) = experiment: Broth microdilution MIC against E.faecalis (Ef); assay type: cell-based; conditions: for MIC: Enterococcus faecalis
Protocol: as §1, §2, §3

E.coli (Ec) = experiment: Broth microdilution MIC against E.coli (Ec); assay type: cell-based; conditions: for MIC: Escherichia coli
Protocol: as §1, §2, §3

P.aeruginosa (Pa) = experiment: Broth microdilution MIC against P.aeruginosa (Pa); assay type: cell-based; conditions: for MIC: Pseudomonas aeruginosa
Protocol: as §1, §2, §3

S.aureus (Sa) = experiment: Broth microdilution MIC against S.aureus (Sa); assay type: cell-based; conditions: for MIC: Staphylococcus aureus
Protocol: as §1, §2, §3

[3] = CAMHB supplemented with sodium bicarbonate 6.25 mM, read-out: Ab +bicarb 6.25 (MIC)
[4] = CAMHB supplemented with sodium bicarbonate 6.25 mM, read-out: Ef +bicarb 6.25 (MIC)
[5] = CAMHB supplemented with sodium bicarbonate 6.25 mM, read-out: E. coli + bicarb 6.25 (MIC)
[6] = CAMHB supplemented with sodium bicarbonate 6.25 mM, read-out: Pa +bicarb 6.25 (MIC)
[7] = CAMHB supplemented with sodium bicarbonate 6.25 mM, read-out: Sa + bicarb 6.25 (MIC)
[8] = CAMHB supplemented with sodium bicarbonate 6.25 mM
[9] = CAMHB supplemented with sodium bicarbonate 6.25 mM, Hydrochloride Salt

CC(C)(N)C(=O)N1CCN(C(=O)Nc2ccn(-c3ccc4c(c3)CCC(N[C@H]3CC[C@H](N)C3)C4)c(=O)n2)CC1 (single isomer, unassigned) [Compound 27, Hydrochloride Salt]
MIC (A.baumannii (Ab); [3]): > 32 µg/mL
IC50 [1]: ≥ 1000 nM
IC50 [2]: < 500 nM
MIC (E.faecalis (Ef); [4]): < 8 µg/mL
MIC (E.coli (Ec); [5]): < 8 µg/mL
MIC (P.aeruginosa (Pa); [6]): > 32 µg/mL
MIC (S.aureus (Sa); [7]): < 8 µg/mL

CC(C)(N)C(=O)N1CCN(C(=O)Nc2ccn(-c3ccc4c(c3)CCC(N[C@H]3CC[C@H](N)C3)C4)c(=O)n2)CC1 (single isomer, unassigned) [Compound 28, Hydrochloride Salt]
Ab +bicarb 6.25 (MIC) (A.baumannii (Ab); [8]): + (An MIC value (µg/mL) that is 32 µg/mL or greater)
IC50 [1]: ≥ 1000 nM
IC50 [2]: < 500 nM
Ef +bicarb 6.25 (MIC) (E.faecalis (Ef); [9]): ++ (An MIC value (µg/mL) that is 8 µg/mL or greater and less than 32 µg/mL)
E. coli + bicarb 6.25 (MIC) (E.coli (Ec); [8]): +++ (An MIC value (µg/mL) that is less than 8 µg/mL)
Pa +bicarb 6.25 (MIC) (P.aeruginosa (Pa); [8]): + (An MIC value (µg/mL) that is 32 µg/mL or greater)
Sa + bicarb 6.25 (MIC) (S.aureus (Sa); [8]): +++ (An MIC value (µg/mL) that is less than 8 µg/mL)

CC(C)(N)C(=O)N1CCN(C(=O)Nc2ccn(-c3ccc4c(c3)CCC(N[C@H]3CC[C@@H](N)C3)C4)c(=O)n2)CC1 (single isomer, unassigned) [Compound 33, Hydrochloride Salt]
MIC (A.baumannii (Ab); [3]): > 32 µg/mL
IC50 [1]: ≥ 1000 nM
IC50 [2]: < 500 nM
MIC (E.faecalis (Ef); [4]): > 32 µg/mL
MIC (E.coli (Ec); [5]): < 8 µg/mL
MIC (P.aeruginosa (Pa); [6]): > 32 µg/mL
MIC (S.aureus (Sa); [7]): 8 to 32 µg/mL

CC(C)(N)C(=O)N1CCN(C(=O)Nc2ccn(-c3ccc4c(c3)CCC(N[C@H]3CC[C@@H](N)C3)C4)c(=O)n2)CC1 (single isomer, unassigned) [Compound 34, Hydrochloride Salt]
Ab +bicarb 6.25 (MIC) (A.baumannii (Ab); [8]): + (An MIC value (µg/mL) that is 32 µg/mL or greater)
IC50 [1]: ≥ 1000 nM
IC50 [2]: < 500 nM
Ef +bicarb 6.25 (MIC) (E.faecalis (Ef); [8]): + (An MIC value (µg/mL) that is 32 µg/mL or greater)
E. coli + bicarb 6.25 (MIC) (E.coli (Ec); [8]): +++ (An MIC value (µg/mL) that is less than 8 µg/mL)
Pa +bicarb 6.25 (MIC) (P.aeruginosa (Pa); [8]): + (An MIC value (µg/mL) that is 32 µg/mL or greater)
Sa + bicarb 6.25 (MIC) (S.aureus (Sa); [9]): +++ (An MIC value (µg/mL) that is less than 8 µg/mL)

CC(C)(N)C(=O)N1CCN(C(=O)Nc2ccn(-c3ccc4c(c3)CCC(N[C@H]3CC[C@H](N)C3)C4)c(=O)n2)CC1 (stereo in doubt) [Compound 10]
MIC (A.baumannii (Ab); CAMHB supplemented with sodium bicarbonate 25 mM, read-out: Ab +bicarb 25 (MIC)): > 32 µg/mL
IC50 [1]: ≥ 1000 nM
IC50 [2]: < 500 nM
MIC (E.faecalis (Ef); CAMHB supplemented with sodium bicarbonate 25 mM, read-out: Ef +bicarb 25 (MIC)): < 8 µg/mL
MIC (E.coli (Ec); CAMHB supplemented with sodium bicarbonate 25 mM, read-out: E.coli + bicarb 25 (MIC)): < 8 µg/mL
MIC (P.aeruginosa (Pa); CAMHB supplemented with sodium bicarbonate 25 mM, read-out: Pa +bicarb 25 (MIC)): > 32 µg/mL
MIC (S.aureus (Sa); CAMHB supplemented with sodium bicarbonate 25 mM, read-out: Sa + bicarb 25 (MIC)): < 8 µg/mL

CC(C)(N)C(=O)N1CCN(C(=O)Nc2ccn(-c3ccc4c(c3)CCC(N3C[C@@H]5[C@@H](N)[C@@H]5C3)C4)c(=O)n2)CC1 (stereo partly shown) [Compound 1]
IC50 [1]: ≥ 1000 nM
IC50 [2]: ≥ 1000 nM

CC(C)(N)C(=O)N1CCN(C(=O)Nc2ccn(-c3ccc4c(c3)CCC(N3CCC(N)CC3)C4)c(=O)n2)CC1 (stereo not shown) [Compound 2]
IC50 [1]: ≥ 1000 nM
IC50 [2]: < 500 nM
MIC (E.coli (Ec); [5]): < 8 µg/mL
